Measured values published in paper PMC6681301, “Multi-Target β-Protease Inhibitors from Andrographis paniculata: In Silico and In Vitro Studies” (Plants, 2019).

Columns and labels:
[1] = biological target: Acetylcholinesterase (Human) (Homo sapiens, UniProt P22303); assay: In vitro AChE activity assay (Ellman); assay type: biochemical
Method: (§1) The inhibitory activities of both AChE and BChE were measured using the spectrophotometric method developed by Ellman. Acetylcholinesterase (Human), butyrylcholinesterase (Human) with […] (ACh), and […] (BCh) were used as their substrates, respectively. The enzyme activity was observed using Varioskan Flash (version 4.00.53), and the reading was observed using SkanIt Software (2.4.5 RE for Varioskan Flash). AChE and BChE solutions of ~0.15 unit/μL were prepared. The stock solution of AChE substrate (2.5 μM) and BChE substrate (2.5 μM) solution was prepared with DMSO, respectively.
(§2) The isolated compound inhibitor solutions were prepared using the same method as discussed in the BACE-1 assay. The sodium phosphate buffer (pH 8) (78 μL, 79 μL, 80 μL, 81 μL), 20 μL of the 5, 5′-dithiobis-(2-nitrobenzoic acid) (DTNB), AChE, and BChE enzyme solution (2 μL), substrate solution (20 μL), and inhibitor solutions (0 μL, 1 μL, 2 μL, 3 μL, 4 μL) were added to a 96-well plate. Each concentration was considered in triplicate. The plate was incubated for 15 min at 25 °C, and the readings were taken at 412 nm. The percentage inhibition was calculated using the formula percentage inhibition = (1 − C/I) × 100, where C and I were the enzyme activities without and with the test sample, respectively.

BACE-1 = biological target: T1, BACE-1 (Homo sapiens, UniProt P56817); assay: In vitro BACE-1 activity assay (Sigma BACE-1 FRET assay kit); assay type: biochemical
T1 construct: purchased Sigma
Method: The assay was performed according to the manufacturer protocol supplied in BACE-1 activity (Sigma, BACE-1FRET assay kit). […] The BACE-1 substrate solution (50 μM), a BACE-1 enzyme solution (2 μL), and inhibitor solutions were prepared as per the manufacturer’s protocol.
BACE-1 substrate solution was prepared with 1 mg/mL (500 μM) by adding 0.5 ml of DMSO to BACE-1 substrate. 7-Methoxycumarin-4-acetyl-Asn670, Lue 671-Amyloid β/A4 Precursor Protein 770 Fragment 667-(2,4 dinitrophenyl), and Lys-Arg-Arg amide […] salt was used as a substrate for BACE-1. A BACE-1 enzyme solution of ~0.3 unit/μL was prepared. […] The isolated compounds were used for the isolated inhibitor solution preparation. The 5281780 solution (20 μM) with 1% DMSO was prepared after heating the solution at 55 °C for 5 min. The 188316 solution (20 μM) was prepared with 1% DMSO. The 5280443 solution was also prepared with concentration of 20 μM in 1% DMSO. These inhibitor solutions with variable concentrations (1 μM, 2 μM, 3 μM, 4 μM) were used for testing BACE-1 activities. The fluorescence assay buffer (78 μL, 79 μL, 80 μL, 81 μL), a BACE-1 enzyme solution (2 μL), the substrate solution (20 μL), and inhibitor solutions (0 μL, 1 μL, 2 μL, 3 μL, 4 μL) were added to a 96-well plate. Each concentration was considered in triplicate. […] The plate was incubated for 120 min at 37 °C, and the readings were taken. The readings were noted as S120. The percent inhibition was calculated using the formula, percent inhibition = [1 − (S120 − S0)/(C120 − C0)] × 100 [139].

[2] = biological target: butyrylcholinesterase (Human) (Homo sapiens, UniProt P06276); assay: In vitro BChE activity assay (Ellman); assay type: biochemical
Method: as §1, §2

BChE = system: BChE; parameters: method as in PMID 29850593; conditions: cited from earlier work
AChE = system: AChE; parameters: method as in PMID 29850593; conditions: cited from earlier work
BChE (equine serum) = system: BChE (equine serum); parameters: method as in PMID 23529036; conditions: cited from earlier work
AChE (electric eel) = system: AChE (electric eel); parameters: method as in PMID 23529036; conditions: cited from earlier work
[3] = biological target: glycogen synthase kinase-3b; conditions: read-out: IC50, inhibition of glycogen synthase kinase-3b; cited from earlier work

Acetylcholinesterase (Human), sequence (P22303 32-614): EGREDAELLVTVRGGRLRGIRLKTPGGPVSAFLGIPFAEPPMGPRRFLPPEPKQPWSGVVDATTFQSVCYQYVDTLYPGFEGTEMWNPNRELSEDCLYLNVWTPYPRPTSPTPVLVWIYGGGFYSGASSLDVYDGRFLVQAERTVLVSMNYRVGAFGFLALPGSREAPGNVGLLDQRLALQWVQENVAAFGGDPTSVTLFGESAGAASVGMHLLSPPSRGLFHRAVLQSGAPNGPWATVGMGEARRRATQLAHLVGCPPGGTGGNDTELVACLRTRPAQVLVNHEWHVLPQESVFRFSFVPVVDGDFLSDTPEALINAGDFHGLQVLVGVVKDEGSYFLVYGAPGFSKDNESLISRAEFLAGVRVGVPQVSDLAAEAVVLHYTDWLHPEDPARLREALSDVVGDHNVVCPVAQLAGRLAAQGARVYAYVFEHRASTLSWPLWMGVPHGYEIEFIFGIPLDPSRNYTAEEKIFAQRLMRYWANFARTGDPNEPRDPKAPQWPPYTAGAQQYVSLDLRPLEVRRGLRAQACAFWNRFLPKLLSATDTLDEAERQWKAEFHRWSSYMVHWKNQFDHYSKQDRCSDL
T1 sequence (P56817 46-501): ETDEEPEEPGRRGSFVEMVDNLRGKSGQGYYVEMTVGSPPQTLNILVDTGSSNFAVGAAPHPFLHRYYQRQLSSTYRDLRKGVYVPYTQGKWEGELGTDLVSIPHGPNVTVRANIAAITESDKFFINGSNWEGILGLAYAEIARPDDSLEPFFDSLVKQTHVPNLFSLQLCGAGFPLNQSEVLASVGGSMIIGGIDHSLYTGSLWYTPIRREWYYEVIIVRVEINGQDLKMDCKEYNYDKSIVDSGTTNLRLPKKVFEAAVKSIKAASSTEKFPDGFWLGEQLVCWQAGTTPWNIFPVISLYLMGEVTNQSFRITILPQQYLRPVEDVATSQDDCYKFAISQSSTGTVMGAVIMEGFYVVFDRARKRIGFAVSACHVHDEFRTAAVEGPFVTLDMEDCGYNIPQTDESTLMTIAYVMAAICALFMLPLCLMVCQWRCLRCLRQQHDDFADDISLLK
butyrylcholinesterase (Human), sequence (P06276 29-602): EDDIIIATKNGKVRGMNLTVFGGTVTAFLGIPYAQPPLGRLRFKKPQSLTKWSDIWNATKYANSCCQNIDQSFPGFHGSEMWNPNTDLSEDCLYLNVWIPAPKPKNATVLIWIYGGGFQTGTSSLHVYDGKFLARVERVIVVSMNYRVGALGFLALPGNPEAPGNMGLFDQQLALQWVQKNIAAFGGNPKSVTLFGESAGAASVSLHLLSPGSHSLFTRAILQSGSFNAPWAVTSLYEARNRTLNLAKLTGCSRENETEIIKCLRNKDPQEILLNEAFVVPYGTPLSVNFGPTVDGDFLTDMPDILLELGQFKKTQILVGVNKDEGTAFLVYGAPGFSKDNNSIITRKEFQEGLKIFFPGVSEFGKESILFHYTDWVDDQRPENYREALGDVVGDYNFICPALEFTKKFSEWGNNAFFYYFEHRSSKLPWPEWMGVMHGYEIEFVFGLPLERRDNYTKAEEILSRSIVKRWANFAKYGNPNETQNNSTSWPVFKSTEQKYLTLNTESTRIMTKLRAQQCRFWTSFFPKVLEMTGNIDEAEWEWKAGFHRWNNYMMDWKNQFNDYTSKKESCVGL

| SMILES | IC50 [1] [µM] | IC50 (BACE-1) [µM] | IC50 [2] [µM] | other results |
| --- | --- | --- | --- | --- |
| COc1cc(O)c2c(=O)cc(-c3ccccc3)oc2c1OC [Compound 188316, 7-o-methylwogonin] | 2.46 ± 0.03 | 2.91 ± 0.04 | 1.46 ± 0.02 | potency relative to eserine ([1]; comparison of IC50 values (Table 4)): ~1.5 fold |
| COc1cc2c(cc1O)C[C@H]1c3c(cc(O)c(OC)c3-2)CCN1C [Boldine] |  |  |  | IC50 (BChE): 321 µM; IC50 (AChE): 372 µM |
| O=c1cc(-c2ccc(O)cc2)oc2cc(O)cc(O)c12 [Compound 5280443, apigenin] | 3.42 ± 0.02 | 3.79 ± 0.26 | 1.97 ± 0.01 | IC50 [3]: 1.9 µM |
| O=C(C=Cc1ccc(O)c(O)c1)OC1CC(O)(C(=O)O)CC(O)C1OC(=O)C=Cc1ccc(O)c(O)c1 (centres unmarked) [Compound 5281780, 3,4-di-o-caffeoylquinic acid] | 2.14 ± 0.04 | 3.31 ± 0.12 |  |  |
